# According to patent US6875743B1, “Cell adhesion inhibitors” (Biogen, Inc., priority 1996, dated 2005):
# Numbered stars: 1 amine (or outer) side, 2 acyl side, 3 side chain; on linkers, the order of the positions; unused ones are H or OH. Square brackets hold non-standard residues; d marks the D form. Peptide text beside a SMILES is read from it. * marks the point of attachment. ξ: configuration not given here. X4 = COc1nc(CC(=O)[*:2])ccc1N[*:1]; Quinaldoyl = O=C(c1ccc2ccccc2n1)*; X1 = O=C(Cc1ccc(N[*:1])cc1)[*:2]; NH(2-Me-phenyl) = Cc1ccccc1N*; Tic = O=C(O)[CH]1Cc2ccccc2CN1; Chg = N[CH](C(=O)O)C1CCCCC1; ξTic = O=C(O)C1Cc2ccccc2CN1; Nle = CCCC[CH](N)C(=O)O; PhAc = O=C(Cc1ccccc1)*; Aib = CC(C)(N)C(=O)O; CO = O=C([*:1])[*:2]; NHPh = c1ccc(N*)cc1
# Biological target: T1, VLA4 (Homo sapiens, UniProt P05556+P13612)
# T1 construct: endogenous in cells; host or cells: Ramos cells
# Assay: Inhibition of VLA4-dependent adhesion to BSA-CS1
# Type: cell-based
# Details: binding of BCECF-labelled Ramos cells to BSA-CS1 coated wells, 2 mM MnCl2; read-out: IC50
# Text: For example, the cell adhesion inhibitory activity of these compounds may be measured by determining the concentration of inhibitor required to block the binding of VLA-4-expressing cells to fibronectin- or CS1-coated plates. In this assay microtiter wells are coated with either fibronectin (containing the CS-1 sequence) or CS-1. If CS-1 is used, it must be conjugated to a carrier protein, such as bovine serum albumin, in order to bind to the wells. Once the wells are coated, varying concentrations of the test compound are then added together with appropriately labelled, VLA-4-expressing cells. Alternatively, the test compound may be added first and allowed to incubate with the coated wells prior to the addition of the cells. The cells are allowed to incubate in the wells for at least 30 minutes. Following incubation, the wells are emptied and washed. Inhibition of binding is measured by quantitating the fluorescence or radioactivity bound to the plate for each of the various concentrations of test compound, as well as for controls containing no test compound.
# VLA-4-expressing cells that may be utilized in this assay include Ramos cells, Jurkat cells, A375 melanoma cells, as well as human peripheral blood lymophocytes (PBLs). The cells used in this assay may be fluorescently or radioactively labelled.
# This assay was used to assess the potency of VLA4-directed inhibitory compounds of this invention.
# We dissolved BSA-SMCC (Pierce Chemical, Rockford, Ill.; Catalog #77115) in H2O at a concentration of 10 mg/mL. [SEQ ID NO:4]: […](“Cys-Tyr-CS1 peptide”), which we synthesized by conventional solid phase chemistry and purified by HPLC, was dissolved in 10 mM HEPES pH 5, 50 mM NaCl and 0.1 mM EDTA also at a concentration of 10 mg/mL. We then mixed 500 μL of BSA-SMCC, 250 μL of Cys-Tyr-CS1 peptide and 75 μL of 1 mM HEPES pH 7.5 and allowed the conjugation reaction to proceed for 30 minutes. We stopped the reaction by adding 1 μL of beta-mercaptoethanol. Samples were analyzed for cross-linking by SDS-PAGE.
# We coated the wells of a Linbro titertek polystyrene 96-well flat bottom plate (Flow Laboratories, Maclean, Va.; catalog #76-231-05) with 100 μL of the above-described BSA-CS1 solution diluted to 1 μg/mL in 0.05 M NaHCO3 (15 mM NaHCO3, 35 mM Na2CO3) pH 9.2. Some wells were not coated with CS1 in order to assess non-specific cell binding (NSB). The plate was then incubated overnight at 4° C.
# Following this incubation, the contents of the wells were removed by inverting and blotting the plate. All of the wells were then blocked with 100 μL of 1% BSA in PBS, 0.02% NaN3, for a minimum of one hour at room temperature.
# Ramos cells are grown, maintained and labelled in RPMI 1640 culture medium containing 1% BSA. Just prior to running the assay, we added 2′,7′-bis-(2-carboxyethyl)-5 (and -6) carboxyfluorescein acetoxymethyl ester (“BCECF-AM”; Molecular Probes Inc., Eugene, Oreg.; catalog #B-1150) to a final concentration of 2 μM to a culture of Ramos cells (4×10^6 cells/mL). We incubated the cells for 20 minutes at 37° C.
# Following labelling, the cells were washed twice in assay buffer (24 mM TRIS, 137 mM NaCl, 2.7 mM KCl, pH 7.4, containing 0.1% BSA and 2 mM glucose) to remove any cations originating from the culture medium. The cells were then resuspended in assay buffer to 4×10^6 cells/mL and 2 mM MnCl2 was added to upregulate VLA4 on the surface of the cells.
# Immediately prior to running the assay, we removed the BSA blocking solution from the 96-well plates and washed the wells with 100 μL of assay buffer. We then added to each well 25 μL of test cell adhesion inhibitory compound at 2× the final concentration and 25 μL of the labelled Ramos cells. […] Each concentration of compound was tested in triplicate. The compound and cells are allowed to incubate for 30 minutes at room temperature.
# T1 sequence (P13612 34-1032): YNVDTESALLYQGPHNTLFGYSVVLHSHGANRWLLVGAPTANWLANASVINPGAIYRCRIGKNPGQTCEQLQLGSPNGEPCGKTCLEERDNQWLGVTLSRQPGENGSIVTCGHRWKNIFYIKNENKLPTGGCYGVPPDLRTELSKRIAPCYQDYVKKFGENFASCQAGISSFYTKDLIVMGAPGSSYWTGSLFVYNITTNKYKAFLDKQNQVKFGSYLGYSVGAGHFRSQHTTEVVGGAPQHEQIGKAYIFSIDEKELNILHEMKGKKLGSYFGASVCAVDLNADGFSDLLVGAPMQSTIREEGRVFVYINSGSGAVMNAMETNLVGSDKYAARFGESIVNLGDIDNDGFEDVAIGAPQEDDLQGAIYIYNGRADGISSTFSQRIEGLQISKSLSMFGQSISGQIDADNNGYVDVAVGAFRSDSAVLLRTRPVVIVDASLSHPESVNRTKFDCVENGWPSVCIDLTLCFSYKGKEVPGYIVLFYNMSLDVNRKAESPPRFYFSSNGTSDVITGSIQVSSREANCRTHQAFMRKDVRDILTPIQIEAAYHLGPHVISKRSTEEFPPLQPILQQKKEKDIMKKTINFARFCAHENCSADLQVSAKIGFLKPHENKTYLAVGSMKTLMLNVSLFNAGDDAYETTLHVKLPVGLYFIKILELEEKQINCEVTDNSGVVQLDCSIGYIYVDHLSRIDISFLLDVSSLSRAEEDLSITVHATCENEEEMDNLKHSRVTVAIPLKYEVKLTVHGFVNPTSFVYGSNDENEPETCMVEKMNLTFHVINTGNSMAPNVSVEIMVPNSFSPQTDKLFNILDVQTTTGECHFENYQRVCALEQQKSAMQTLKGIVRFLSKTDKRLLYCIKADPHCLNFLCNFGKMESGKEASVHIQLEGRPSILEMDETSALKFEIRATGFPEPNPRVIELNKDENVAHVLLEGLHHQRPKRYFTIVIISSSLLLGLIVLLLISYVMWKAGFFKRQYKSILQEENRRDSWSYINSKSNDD
# T1 sequence (P05556 21-798): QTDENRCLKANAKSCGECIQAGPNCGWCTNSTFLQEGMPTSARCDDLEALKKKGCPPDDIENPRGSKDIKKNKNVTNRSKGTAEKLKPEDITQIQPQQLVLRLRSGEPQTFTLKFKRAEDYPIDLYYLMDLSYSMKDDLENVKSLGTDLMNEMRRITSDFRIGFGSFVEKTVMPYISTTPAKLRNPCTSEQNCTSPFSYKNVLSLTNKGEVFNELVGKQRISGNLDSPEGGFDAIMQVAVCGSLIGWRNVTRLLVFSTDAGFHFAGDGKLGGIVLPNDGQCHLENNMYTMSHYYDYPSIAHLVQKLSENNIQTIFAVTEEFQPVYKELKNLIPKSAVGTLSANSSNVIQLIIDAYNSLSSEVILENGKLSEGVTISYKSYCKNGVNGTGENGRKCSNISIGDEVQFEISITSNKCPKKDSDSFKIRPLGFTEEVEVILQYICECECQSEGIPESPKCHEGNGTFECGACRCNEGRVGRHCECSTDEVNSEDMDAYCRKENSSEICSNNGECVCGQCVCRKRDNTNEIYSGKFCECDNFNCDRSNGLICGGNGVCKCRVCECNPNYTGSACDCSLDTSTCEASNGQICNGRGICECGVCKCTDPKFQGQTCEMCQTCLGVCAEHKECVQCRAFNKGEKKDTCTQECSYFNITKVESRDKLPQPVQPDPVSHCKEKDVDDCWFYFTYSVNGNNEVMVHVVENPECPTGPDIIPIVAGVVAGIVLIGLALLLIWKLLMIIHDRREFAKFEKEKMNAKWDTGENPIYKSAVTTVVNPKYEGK
row,SMILES,IC50
1,CCCCC(NC(=O)C(NC(=O)C(CC(=O)O)NC(=O)C(CC(C)C)NC(=O)c1ccc2ccccc2n1)C(C)C)C(=O)O (stereo not drawn) [Compound 44] (Quinaldoyl-LDV[Nle]-OH; configuration not given here),0.05 to 10 µM
2,CC(C)CC(NC(=O)C1Cc2ccccc2CN1)C(=O)NC(CC(=O)O)C(=O)O (stereo not drawn) [Compound 23] (H-[Tic]-Leu-Asp-OH; configuration not given here),> 10 µM
3,COC(=O)[C@@H](NC(=O)[C@H](CC(=O)O)N1CCC(NC(=O)OCc2ccccc2)C1=O)C(C)C (stereo partly drawn) [Compound 334],> 10 µM
4,Cc1ccc2nc(C(=O)N[C@@H](CC(C)C)C(=O)N[C@@H](CC(=O)O)C(=O)N[C@H](C(=O)O)C(C)C)[nH]c(=O)c2c1 [Compound 370],> 10 µM
5,CC(C)C[C@H](NC(=O)[C@H](CC(=O)O)NC(=O)[C@H](CC(C)C)NC(=O)C1Cc2ccccc2CN1)C(=O)O (stereo partly drawn) [Compound 90] (H-[ξTic]LDL-OH),> 10 µM
6,CC(C)C[C@H](NC(=O)c1cccnc1Sc1ccccc1)C(=O)N[C@@H](CC(=O)O)C(=O)N[C@H](C(=O)O)C(C)C [Compound 373],> 10 µM
7,COc1nc(CC(=O)N[C@@H](CC(C)C)C(=O)N[C@@H](CC(=O)O)C(=O)N[C@H](C(=O)N2CCC[C@H]2C(=O)O)C(C)C)ccc1NC(=O)Nc1ccccc1C [Compound 4] ({NH(2-Me-phenyl)-CO}-[X4]LDVP-OH),< 0.05 µM
8,CNC(=O)C(C)(C)NC(=O)[C@H](CC(=O)O)NC(=O)[C@H](CC(C)C)NC(=O)c1ccc2ccccc2n1 [Compound 185],> 10 µM
9,CCC(C)C(NC(=O)C(CC(=O)O)NC(=O)C(CC(C)C)NC(=O)c1ccc2ccccc2n1)C(=O)OC (stereo not drawn) [Compound 56],0.05 to 10 µM
10,CC(C)CC(NC(=O)C1Cc2ccccc2CN1)C(=O)NC(CC(=O)O)C(=O)NC(C(=O)N1CCCC1C(=O)O)C(C)C (stereo not drawn) [Compound 33] (H-[Tic]LDVP-OH; configuration not given here),> 10 µM
11,CC(C)C[C@H](NC(=O)c1ccc(-c2ccccn2)s1)C(=O)N[C@@H](CC(=O)O)C(=O)N[C@H](C(=O)O)C(C)C [Compound 407],> 10 µM
12,CC(C)C[C@H](NC(=O)N1c2ccccc2CCc2ccccc21)C(=O)N[C@@H](CC(=O)O)C(=O)N[C@H](C(=O)O)C(C)C [Compound 408],> 10 µM
13,Cc1c(C(=O)N[C@@H](CC(C)C)C(=O)N[C@@H](CC(=O)O)C(=O)N[C@H](C(=O)O)C(C)C)cnn1-c1ccccc1 [Compound 369],> 10 µM
14,CCCCCCNC(=O)C(NC(=O)C(CC(=O)O)NC(=O)C(CC(C)C)NC(=O)C1CCc2ccccc2N1)C(C)C (stereo not drawn) [Compound 114],> 10 µM
15,CNC(=O)C(C)(C)NC(=O)[C@H](CC(=O)O)NC(=O)[C@H](CC(C)C)NC(=O)Cc1ccccc1 [Compound 351] (PhAc-Leu-Asp-[Aib]-NHMe),> 10 µM
16,CC(C)C(NC(=O)C(CC(=O)O)NC(=O)C(NC(=O)c1cc2ccccc2cn1)C1CCCCC1)C(=O)O (stereo not drawn) [Compound 83],> 10 µM
17,CSCC[C@H](NC(=O)[C@@H](NC(=O)[C@H](CC(=O)O)NC(=O)[C@H](CC(C)C)NC(=O)c1ccc2ccccc2n1)C(C)C)C(=O)O [Compound 186] (Quinaldoyl-LDVM-OH),> 10 µM
18,CC(C)C[C@H](NC(=O)C1COc2ccc(Cl)cc2C1)C(=O)N[C@@H](CC(=O)O)C(=O)N[C@H](C(=O)O)C(C)C (stereo partly drawn) [Compound 386],> 10 µM
19,CC(C)CC(NC(=O)CCCCc1ccccc1)C(=O)NC(CC(=O)O)C(=O)NCC1CCCCC1 (stereo not drawn) [Compound 26],> 10 µM
20,Cc1ccccc1NC(=O)Nc1ccc(CC(=O)N2CCC[C@H]2C(=O)N[C@@H](CC(=O)O)C(=O)N[C@@H](Cc2c[nH]c3ccccc23)C(N)=O)cc1 [Compound 250],< 0.05 µM
21,CC(C)C(NC(=O)C(CC(=O)O)NC(=O)C(NC(=O)C1Cc2ccccc2CN1)C1CCCCC1)C(=O)O (stereo not drawn) [Compound 84] (H-[Tic][Chg]DV-OH; configuration not given here),> 10 µM
22,Cc1ccccc1NC(=O)Nc1ccc(CC(=O)NC(CC(C)C)C(=O)N2CN(Cc3ccc4c(c3)OCO4)C(=O)C[C@H]2C(=O)O)cc1 (mixture of isomers) [Compound 363],> 10 µM

# Next, values leading:
row,IC50,SMILES
1,0.05 to 10 µM,CNC(=O)[C@@H](CC(C)C)NC(=O)[C@H](CC(=O)O)NC(=O)[C@@H]1CCCN1C(=O)Cc1ccc(NC(=O)Nc2ccccc2C)cc1 [Compound 409]
2,< 0.05 µM,Cc1ccccc1NC(=O)Nc1ccc(CC(=O)N[C@@H](CCC(=O)O)C(=O)N[C@@H](CC(=O)O)C(=O)N[C@H](C(N)=O)C(C)C)cc1 [Compound 265]
3,0.05 to 10 µM,Cc1ccccc1NC(=O)Nc1ccc(CC(=O)N2CCC2C(=O)N[C@@H](CC(=O)O)C(=O)N[C@H](CC(C)C)C(=O)O)cc1 (stereo partly drawn) [Compound 412]
4,< 0.05 µM,CSCC[C@H](NC(=O)Cc1ccc(NC(=O)Nc2ccccc2C)cc1)C(=O)N[C@@H](CC(=O)O)C(=O)N[C@H](CO)C(N)=O [Compound 229]
5,< 0.05 µM,CSCC[C@H](NC(=O)Cc1ccc(NC(=O)Nc2ccccc2C)cc1)C(=O)N[C@@H](CC(=O)O)C(=O)N[C@H](C(N)=O)C(C)C [Compound 221]
6,< 0.05 µM,Cc1ccccc1NC(=O)Nc1ccc(CC(=O)N[C@@H](CO)C(=O)N[C@@H](CC(=O)O)C(=O)N[C@@H](Cc2c[nH]c3ccccc23)C(N)=O)cc1 [Compound 284]
7,< 0.05 µM,CC(C)C[C@H](NC(=O)Cc1ccc(NC(=O)Nc2ccccc2)cc1)C(=O)N[C@@H](CC(=O)O)C(=O)N[C@H](C(=O)N1CCC[C@H]1C(N)=O)C(C)C [Compound 208] ({NHPh-CO}-[X1]LDVP-NH2)
8,< 0.05 µM,Cc1ccccc1NC(=O)Nc1ccc(CC(=O)N[C@@H](CC(C)C)C(=O)N[C@@H](CCC(=O)O)C(=O)N[C@@H](CC(=O)O)C(N)=O)cc1 [Compound 310]
9,< 0.05 µM,CC(C)C[C@H](NC(=O)Cc1ccc(NC(=O)Nc2ccccc2)cc1)C(=O)N[C@@H](CC(=O)O)C(=O)N[C@H](C(=O)O)C(C)C [Compound 203]
10,< 0.05 µM,Cc1ccccc1NC(=O)Nc1ccc(CC(=O)N[C@H](CC(C)C)C(=O)N[C@@H](CC(=O)O)C(=O)N[C@@H](Cc2c[nH]c3ccccc23)C(N)=O)cc1 [Compound 295]
11,< 0.05 µM,Cc1ccccc1NC(=O)Nc1ccc(CC(=O)N[C@@H](CC(C)C)C(=O)N[C@@H](CC(=O)O)C(=O)N[C@H](C(N)=O)C(C)C)cc1 [Compound 232]
12,< 0.05 µM,Cc1ccccc1NC(=O)Nc1ccc(CC(=O)N[C@H](CC(C)C)C(=O)N[C@@H](CC(=O)O)C(=O)N[C@@H](CC(=O)O)C(N)=O)cc1 [Compound 286]
13,< 0.05 µM,Cc1ccccc1NC(=O)Nc1ccc(CC(=O)N[C@@H](CCC(=O)O)C(=O)N[C@@H](CC(=O)O)C(=O)N[C@H](CCC(=O)O)C(N)=O)cc1 [Compound 271]
14,0.05 to 10 µM,CC(C)C[C@H](NC(=O)Cc1ccc(NC(=O)Nc2ccccc2)cc1)C(=O)N[C@H](CC(=O)O)C(=O)N[C@H](C(=O)N1CCC[C@H]1C(N)=O)C(C)C [Compound 210] ({NHPh-CO}-[X1]L[dD]VP-NH2)
15,< 0.05 µM,Cc1ccccc1NC(=O)Nc1ccc(CC(=O)N2CCC[C@H]2C(=O)N[C@@H](CC(=O)O)C(=O)N[C@H](C(N)=O)C(C)C)cc1 [Compound 243]
16,0.05 to 10 µM,CC(C)CC(NC(=O)Cc1ccc(NC(=O)Nc2ccccc2)cc1)C(=O)NC(CC(=O)O)C(=O)NC(C(=O)N1CCCC1C(N)=O)C(C)C (stereo not drawn) [Compound 201] ({NHPh-CO}-[X1]LDVP-NH2; configuration not given here)
17,< 0.05 µM,Cc1ccccc1NC(=O)Nc1ccc(CC(=O)N[C@@H](CO)C(=O)N[C@@H](CC(=O)O)C(=O)N[C@H](C(N)=O)[C@@H](C)O)cc1 [Compound 280]
